The numbers were not newly measured in patent publication US9610289B2, “Combinations of AKT inhibitor compounds and erlotinib, and methods of use” (Genentech, Inc., priority 2011, dated 2017), which cites them from elsewhere.

This data set addresses T1, topoisomerase I (Homo sapiens, UniProt P11387).
T1 sequence (P11387 1-765): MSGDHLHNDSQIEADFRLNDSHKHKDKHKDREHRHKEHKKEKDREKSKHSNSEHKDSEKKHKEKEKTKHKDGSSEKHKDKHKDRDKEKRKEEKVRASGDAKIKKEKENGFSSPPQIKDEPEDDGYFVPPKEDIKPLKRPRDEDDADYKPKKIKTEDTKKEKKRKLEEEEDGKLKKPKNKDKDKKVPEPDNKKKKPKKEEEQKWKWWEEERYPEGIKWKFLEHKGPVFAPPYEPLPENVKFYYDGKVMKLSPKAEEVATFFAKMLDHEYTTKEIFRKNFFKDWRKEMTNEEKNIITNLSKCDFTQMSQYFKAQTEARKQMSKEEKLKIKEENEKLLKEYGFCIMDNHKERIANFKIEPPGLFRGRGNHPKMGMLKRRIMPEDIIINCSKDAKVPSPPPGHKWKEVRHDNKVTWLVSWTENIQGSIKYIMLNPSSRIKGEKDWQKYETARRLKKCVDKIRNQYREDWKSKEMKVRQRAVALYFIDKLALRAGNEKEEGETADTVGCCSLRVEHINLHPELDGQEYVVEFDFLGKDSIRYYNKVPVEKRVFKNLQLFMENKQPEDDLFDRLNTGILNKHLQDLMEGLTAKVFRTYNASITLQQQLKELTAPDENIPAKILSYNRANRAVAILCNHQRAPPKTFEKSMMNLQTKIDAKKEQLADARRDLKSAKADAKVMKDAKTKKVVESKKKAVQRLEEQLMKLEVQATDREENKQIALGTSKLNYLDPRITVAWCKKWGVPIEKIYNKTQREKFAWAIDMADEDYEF
The conditions noted are these: active metabolite versus irinotecan.

SMILES strings stand for the structures.

Regarding `CCc1c2c(nc3ccc(O)cc13)-c1cc3c(c(=O)n1C2)COC(=O)[C@]3(O)CC` [SN-38, 7-ethyl-10-hydroxy-camptothecin], the “more active than irinotecan itself” value was 200 times.
